Test results taken from US20250002455A1, “NEW N-PHENYLPYRROLAMIDE INHIBITORS OF DNA GYRASE AND TOPOISOMERASE IV WITH ANTIBACTERIAL ACTIVITY” (priority 2020, published 2025).

Experiments:
[1] = biological target: T1, S. aureus topoisomerase IV (Staphylococcus aureus, UniProt P0C1S7); test: Topoisomerase IV inhibition assay (Inspiralis, streptavidin-coated plates); type: biochemical
T1 construct: purchased Inspiralis
Description: (§1) Inhibitory activities for compounds of the present invention were determined on E. coli and S. aureus DNA gyrase and topoisomerase IV in an assay from Inspiralis on streptavidin-coated 96-well microtiter plates from Thermo scientific Pierce. […] After washing off the unbound oligonucleotide, the enzyme test was performed. […] Reaction solutions were incubated at 37° C. for 30 min. After that, the TF buffer (50 mM NaOAc with pH 5.0, 50 mM NaCl and 50 mM MgCl2) was added to terminate the enzymatic reaction. After additional incubation for 30 min at rt, during which biotin-oligonucleotide-plasmid triplex was formed, the unbound plasmid was washed off using TF buffer and SybrGOLD in T10 buffer (10 mM Tris HCl with pH 8.0 and 1 mM EDTA) was added. […] Initial screening was done at 100 or 10 nM concentration of inhibitors against E. coli DNA gyrase or 1 μM or 100 nM concentration against S. aureus DNA gyrase and E. coli and S. aureus topo IV. […] GraphPad Prism 6.0 software was used to calculate the IC50 values. The result is given as the average value of three independent measurements. […] Chemoth.

E. coli DNA gyrase = biological target: T2, E. coli DNA gyrase (Escherichia coli, UniProt P0AES6); test: biochemical; settings: E. coli DNA gyrase; for IC50: read-out: IC50
T2 construct: purchased Inspiralis
Description: (§2) Inhibitory activities for compounds of the present invention were determined on E. coli and S. aureus DNA gyrase and topoisomerase IV in an assay from Inspiralis on streptavidin-coated 96-well microtiter plates from Thermo scientific Pierce. […] After washing off the unbound oligonucleotide, the enzyme test was performed. […] Reaction solutions were incubated at 37° C. for 30 min. After that, the TF buffer (50 mM NaOAc with pH 5.0, 50 mM NaCl and 50 mM MgCl2) was added to terminate the enzymatic reaction. After additional incubation for 30 min at rt, during which biotin-oligonucleotide-plasmid triplex was formed, the unbound plasmid was washed off using TF buffer and SybrGOLD in T10 buffer (10 mM Tris HCl with pH 8.0 and 1 mM EDTA) was added. […] GraphPad Prism 6.0 software was used to calculate the IC50 values. The result is given as the average value of three independent measurements. […] Chemoth.

[2] = system: E. aerogenes (ATCC 13408); test: Microbroth dilution MIC (CLSI); type: cell-based, Enterobacter aerogenes; settings: Klebsiella aerogenes, ATCC13408; E. aerogenes (ATCC 13408); read-out: MIC
Description: (§3) The chemical entities described in the present invention were assessed for their antimicrobial activity using a microbroth dilution assay as recommended by the CLSI (Methods for Dilution Antimicrobial Susceptibility Tests for Bacteria That Grow Aerobically, and Methods for Antimicrobial Susceptibility Testing of Anaerobic Bacteria, Clinical and Laboratory Standards Institute, Document M07-A8, and M11-A8, Wayne, PA 19087, USA, 2012.). Compounds were dissolved by using 100% DMSO. Serial two-fold dilutions of each compound were made by using 100% DMSO as the diluent.
(§4) A library of Gram-negative and Gram-positive microbes and their drug- and multidrug-resistant variants were employed as test organisms. The MIC (minimum inhibitory concentration) was determined as the lowest concentration of an individual drug that lead to no visible growth.

S. aureus DNA gyrase = biological target: T3, S. aureus DNA gyrase (Staphylococcus aureus, UniProt P0A0K8); test: biochemical; settings: S. aureus DNA gyrase
T3 construct: purchased Inspiralis
Description: as §2

E. coli ATCC 25922 = test: Microbroth dilution MIC (CLSI); type: cell-based; settings: Escherichia coli, ATCC25922; E. coli ATCC 25922; read-out: MIC
Description: as §3, §4

[3] = system: K. pneumoniae (ATCC 700603); test: Microbroth dilution MIC (CLSI); type: cell-based; settings: Klebsiella pneumoniae, ATCC700603; K. pneumoniae (ATCC 700603); read-out: MIC
Description: as §3, §4

[4] = system: A. baumannii (ATCC 19606); test: Microbroth dilution MIC (CLSI); type: cell-based; settings: Acinetobacter baumannii, ATCC19606; A. baumannii (ATCC 19606); read-out: MIC
Description: as §3, §4

P. aeruginosa ATCC 27853 = test: Microbroth dilution MIC (CLSI); type: cell-based; settings: Pseudomonas aeruginosa, ATCC27853; P. aeruginosa ATCC 27853; read-out: MIC
Description: as §3, §4

E. faecium (ATCC 35667) = test: Microbroth dilution MIC (CLSI); type: cell-based; settings: Enterococcus faecium, ATCC35667; E. faecium (ATCC 35667); read-out: MIC
Description: as §3, §4

S. aureus ATCC 29213 = test: Microbroth dilution MIC (CLSI); type: cell-based; settings: Staphylococcus aureus, ATCC29213; S. aureus ATCC 29213; read-out: MIC
Description: as §3, §4

E. coli topoisomerase IV = biological target: T4, E. coli topoisomerase IV (Escherichia coli, UniProt P20083); test: biochemical; settings: E. coli topo IV; read-out: IC50
T4 construct: purchased Inspiralis
Description: as §1

E. faecium ATCC 700221 = test: Microbroth dilution MIC (CLSI); type: cell-based; settings: Enterococcus faecium, ATCC700221; E. faecium ATCC 700221; read-out: MIC
Description: as §3, §4

K. pneumoniae ATCC 10031 = test: Microbroth dilution MIC (CLSI); type: cell-based; settings: Klebsiella pneumoniae, ATCC10031; K. pneumoniae ATCC 10031; read-out: MIC
Description: as §3, §4

[5] = system: S. aureus ATCC 700699 (VISA); test: Microbroth dilution MIC (CLSI); type: cell-based; settings: Staphylococcus aureus; S. aureus ATCC 700699 (VISA); read-out: MIC
Description: as §3, §4

E. faecalis ATCC 29212 = test: Microbroth dilution MIC (CLSI); type: cell-based; settings: Enterococcus faecalis, ATCC29212; E. faecalis ATCC 29212; read-out: MIC
Description: as §3, §4

[6] = system: S. aureus ATCC 43300 (MRSA); test: Microbroth dilution MIC (CLSI); type: cell-based; settings: Staphylococcus aureus; S. aureus ATCC 43300 (MRSA); read-out: MIC
Description: as §3, §4

[7] = system: E. spp. cloacae ATCC 13047; test: Microbroth dilution MIC (CLSI); type: cell-based; settings: Enterobacter cloacae, ATCC13047; E. spp. cloacae ATCC 13047; read-out: MIC
Description: as §3, §4

A. baumannii ATCC 17978 = test: Microbroth dilution MIC (CLSI); type: cell-based; settings: Acinetobacter baumannii, ATCC17978; A. baumannii ATCC 17978; read-out: MIC
Description: as §3, §4

T1 sequence (P0C1U9 whole entry): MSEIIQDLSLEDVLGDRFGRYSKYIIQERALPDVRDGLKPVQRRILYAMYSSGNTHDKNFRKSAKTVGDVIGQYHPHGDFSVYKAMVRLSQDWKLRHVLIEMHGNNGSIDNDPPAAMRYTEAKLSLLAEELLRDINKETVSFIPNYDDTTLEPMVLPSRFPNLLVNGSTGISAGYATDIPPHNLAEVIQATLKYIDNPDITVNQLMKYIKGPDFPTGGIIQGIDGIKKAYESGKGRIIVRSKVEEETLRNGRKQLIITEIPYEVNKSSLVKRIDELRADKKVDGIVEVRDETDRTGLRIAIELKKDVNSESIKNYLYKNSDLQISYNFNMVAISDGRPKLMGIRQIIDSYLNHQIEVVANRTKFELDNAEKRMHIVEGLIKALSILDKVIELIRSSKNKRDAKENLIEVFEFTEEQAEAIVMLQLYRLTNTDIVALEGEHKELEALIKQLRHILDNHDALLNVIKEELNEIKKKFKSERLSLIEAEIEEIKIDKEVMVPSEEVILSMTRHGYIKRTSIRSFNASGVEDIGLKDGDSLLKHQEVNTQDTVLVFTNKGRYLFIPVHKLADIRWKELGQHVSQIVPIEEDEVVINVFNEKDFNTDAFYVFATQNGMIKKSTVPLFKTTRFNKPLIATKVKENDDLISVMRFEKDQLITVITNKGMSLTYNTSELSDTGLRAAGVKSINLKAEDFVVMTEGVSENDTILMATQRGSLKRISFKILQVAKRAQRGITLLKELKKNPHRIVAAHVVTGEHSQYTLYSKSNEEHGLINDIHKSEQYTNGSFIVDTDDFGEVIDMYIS
T1 sequence (P0C1S7 whole entry): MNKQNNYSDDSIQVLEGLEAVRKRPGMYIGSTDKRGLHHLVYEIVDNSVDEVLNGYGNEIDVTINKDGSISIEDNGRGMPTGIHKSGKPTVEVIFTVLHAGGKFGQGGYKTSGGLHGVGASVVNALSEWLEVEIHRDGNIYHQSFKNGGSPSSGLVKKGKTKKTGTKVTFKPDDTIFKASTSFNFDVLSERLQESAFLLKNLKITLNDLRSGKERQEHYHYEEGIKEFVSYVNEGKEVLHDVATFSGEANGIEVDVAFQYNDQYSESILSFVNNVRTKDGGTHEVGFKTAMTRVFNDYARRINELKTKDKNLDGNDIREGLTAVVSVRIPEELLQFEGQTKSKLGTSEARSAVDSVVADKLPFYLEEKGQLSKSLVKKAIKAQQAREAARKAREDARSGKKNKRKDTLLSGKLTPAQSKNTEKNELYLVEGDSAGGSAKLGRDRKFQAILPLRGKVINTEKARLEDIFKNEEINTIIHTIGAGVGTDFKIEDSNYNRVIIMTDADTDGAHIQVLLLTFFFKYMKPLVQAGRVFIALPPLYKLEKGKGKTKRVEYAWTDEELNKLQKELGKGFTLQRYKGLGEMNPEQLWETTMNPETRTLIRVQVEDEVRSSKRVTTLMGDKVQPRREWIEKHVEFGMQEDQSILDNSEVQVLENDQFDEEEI
T3 sequence (P20831 whole entry): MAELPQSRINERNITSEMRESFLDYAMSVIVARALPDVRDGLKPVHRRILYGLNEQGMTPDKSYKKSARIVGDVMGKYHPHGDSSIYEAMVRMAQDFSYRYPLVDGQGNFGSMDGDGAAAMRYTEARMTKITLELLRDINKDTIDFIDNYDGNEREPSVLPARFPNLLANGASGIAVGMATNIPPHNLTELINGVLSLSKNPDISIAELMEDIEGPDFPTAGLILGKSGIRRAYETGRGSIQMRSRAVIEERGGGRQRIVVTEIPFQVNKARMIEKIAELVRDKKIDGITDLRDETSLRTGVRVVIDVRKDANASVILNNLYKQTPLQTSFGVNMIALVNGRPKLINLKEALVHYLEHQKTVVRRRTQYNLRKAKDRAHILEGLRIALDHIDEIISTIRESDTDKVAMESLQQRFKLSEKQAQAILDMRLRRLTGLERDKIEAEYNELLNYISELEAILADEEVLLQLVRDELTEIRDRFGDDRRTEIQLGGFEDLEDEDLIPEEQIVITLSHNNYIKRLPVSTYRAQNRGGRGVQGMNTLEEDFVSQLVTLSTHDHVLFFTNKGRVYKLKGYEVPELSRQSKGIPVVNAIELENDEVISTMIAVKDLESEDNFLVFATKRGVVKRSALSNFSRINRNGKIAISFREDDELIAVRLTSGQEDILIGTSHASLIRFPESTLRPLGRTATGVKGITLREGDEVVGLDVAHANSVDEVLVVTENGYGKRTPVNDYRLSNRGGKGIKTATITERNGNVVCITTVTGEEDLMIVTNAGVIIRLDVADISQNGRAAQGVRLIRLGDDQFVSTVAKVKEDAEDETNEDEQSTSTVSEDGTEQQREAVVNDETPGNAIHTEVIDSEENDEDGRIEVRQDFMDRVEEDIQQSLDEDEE
T3 sequence (P0A0K8 whole entry): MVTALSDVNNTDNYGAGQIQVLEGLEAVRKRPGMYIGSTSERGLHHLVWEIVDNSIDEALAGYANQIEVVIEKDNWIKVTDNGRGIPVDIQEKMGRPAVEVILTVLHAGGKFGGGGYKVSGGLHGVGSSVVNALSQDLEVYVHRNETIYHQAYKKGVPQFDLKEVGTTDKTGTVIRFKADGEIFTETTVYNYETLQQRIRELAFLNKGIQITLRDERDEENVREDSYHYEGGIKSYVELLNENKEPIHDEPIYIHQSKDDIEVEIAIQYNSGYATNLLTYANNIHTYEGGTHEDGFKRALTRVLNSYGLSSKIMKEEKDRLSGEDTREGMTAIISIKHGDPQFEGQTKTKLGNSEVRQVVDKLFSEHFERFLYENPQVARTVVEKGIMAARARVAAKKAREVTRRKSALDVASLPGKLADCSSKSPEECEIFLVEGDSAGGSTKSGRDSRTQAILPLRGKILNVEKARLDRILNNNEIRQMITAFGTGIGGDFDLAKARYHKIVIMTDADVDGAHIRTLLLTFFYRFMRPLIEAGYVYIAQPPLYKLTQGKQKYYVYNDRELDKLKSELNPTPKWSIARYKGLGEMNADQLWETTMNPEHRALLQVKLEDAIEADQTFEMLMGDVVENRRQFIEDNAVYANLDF
T4 sequence (P0AFI2 whole entry): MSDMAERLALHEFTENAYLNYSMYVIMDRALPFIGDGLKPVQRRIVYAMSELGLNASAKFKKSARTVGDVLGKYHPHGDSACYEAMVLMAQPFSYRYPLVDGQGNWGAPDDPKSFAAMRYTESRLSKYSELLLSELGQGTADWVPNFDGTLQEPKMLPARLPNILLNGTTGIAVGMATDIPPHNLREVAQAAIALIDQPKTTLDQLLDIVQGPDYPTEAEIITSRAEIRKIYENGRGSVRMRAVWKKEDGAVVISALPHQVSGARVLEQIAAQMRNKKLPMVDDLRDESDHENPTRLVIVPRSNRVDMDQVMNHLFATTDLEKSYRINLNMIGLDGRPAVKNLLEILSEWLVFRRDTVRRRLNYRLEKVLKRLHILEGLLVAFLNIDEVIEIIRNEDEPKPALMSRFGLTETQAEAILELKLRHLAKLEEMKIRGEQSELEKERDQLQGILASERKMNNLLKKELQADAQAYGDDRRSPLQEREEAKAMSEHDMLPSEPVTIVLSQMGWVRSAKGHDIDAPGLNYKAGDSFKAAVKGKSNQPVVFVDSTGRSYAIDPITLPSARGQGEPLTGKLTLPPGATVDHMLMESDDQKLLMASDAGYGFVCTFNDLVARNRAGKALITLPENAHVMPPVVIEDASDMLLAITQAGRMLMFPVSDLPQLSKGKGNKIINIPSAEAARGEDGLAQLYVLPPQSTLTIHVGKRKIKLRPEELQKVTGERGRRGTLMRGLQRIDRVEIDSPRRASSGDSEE
T4 sequence (P20083 whole entry): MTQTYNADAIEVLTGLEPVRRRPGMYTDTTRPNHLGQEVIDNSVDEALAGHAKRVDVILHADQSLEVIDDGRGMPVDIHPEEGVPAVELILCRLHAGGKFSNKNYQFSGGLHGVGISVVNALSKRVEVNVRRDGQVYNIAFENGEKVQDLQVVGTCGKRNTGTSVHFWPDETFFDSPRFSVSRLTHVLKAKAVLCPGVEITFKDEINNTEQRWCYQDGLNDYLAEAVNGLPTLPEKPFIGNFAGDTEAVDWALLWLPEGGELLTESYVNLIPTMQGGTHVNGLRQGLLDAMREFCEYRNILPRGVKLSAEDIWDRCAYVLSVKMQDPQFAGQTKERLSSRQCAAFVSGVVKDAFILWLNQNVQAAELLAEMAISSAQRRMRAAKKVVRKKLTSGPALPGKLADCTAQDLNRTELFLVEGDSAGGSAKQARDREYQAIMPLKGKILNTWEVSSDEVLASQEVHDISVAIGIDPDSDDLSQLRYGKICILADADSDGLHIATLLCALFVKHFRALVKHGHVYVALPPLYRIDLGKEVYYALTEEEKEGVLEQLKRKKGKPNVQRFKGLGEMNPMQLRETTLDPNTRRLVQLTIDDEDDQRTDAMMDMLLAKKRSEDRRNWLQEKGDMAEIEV

Cc1[nH]c(C(=O)Nc2ccc(-c3noc(=O)[nH]3)cc2N2CCOCC2)c(Cl)c1Cl [Example 8, 3,4-Dichloro-5-methyl-N-(2-morpholino-4-(5-oxo-4,5-dihydro-1,2,4-oxadiazol-3-yl)phenyl)-1H-pyrrole-2-carboxamide]
remaining activity at 0.1 µM ([1]; S. aureus topo IV, 0.1 μM compound, read-out: RA (residual activity of the enzyme)): 51% | remaining activity at 1 µM ([1]; S. aureus topo IV, 1 μM compound, read-out: RA (residual activity of the enzyme)): 10% | IC50 (E. coli DNA gyrase): 13 nM

Cl.N[C@@H]1CCN(c2cc(C(=O)NCC(=O)O)ccc2NC(=O)c2cc(Br)c(Br)[nH]2)C1 [Example 37, (R)-1-(5-((Carboxymethyl)carbamoyl)-2-(4,5-dibromo-1H-pyrrole-2-carboxamido)phenyl)pyrrolidin-3-aminium chloride]
MIC [2]: ≥ 64 µg/mL | remaining activity at 10 µM (S. aureus DNA gyrase; 10 μM compound, read-out: RA (residual activity of the enzyme)): 78% | IC50 (E. coli DNA gyrase): 2380 nM | MIC (E. coli ATCC 25922): ≥ 64 µg/mL | MIC [3]: ≥ 64 µg/mL | MIC [4]: ≥ 64 µg/mL | MIC (P. aeruginosa ATCC 27853): ≥ 64 µg/mL | MIC (E. faecium (ATCC 35667)): ≥ 64 µg/mL | MIC (S. aureus ATCC 29213): ≥ 64 µg/mL

Cc1nnc(-c2ccc(NC(=O)c3[nH]c(C)c(Cl)c3Cl)c(OC(C)C)c2)o1 [Example 21, 3,4-Dichloro-N-(2-isopropoxy-4-(5-methyl-1,3,4-oxadiazol-2-yl)phenyl)-5-methyl-1H-pyrrole-2-carboxamide]
MIC [2]: ≥ 64 µg/mL | remaining activity at 1 µM (E. coli DNA gyrase; 1 μM compound, read-out: RA (residual activity of the enzyme)): 95% | MIC (E. coli ATCC 25922): ≥ 64 µg/mL | MIC [3]: ≥ 64 µg/mL | MIC [4]: ≥ 64 µg/mL | MIC (P. aeruginosa ATCC 27853): ≥ 64 µg/mL | MIC (E. faecium (ATCC 35667)): ≥ 64 µg/mL | MIC (S. aureus ATCC 29213): ≥ 64 µg/mL

Cc1[nH]c(C(=O)Nc2ccc(-n3nn[nH]c3=O)cc2N2CCC(N)CC2)c(Cl)c1Cl.Cl [Example 23, 1-(2-(3,4-Dichloro-5-methyl-1H-pyrrole-2-carboxamido)-5-(5-oxo-4,5-dihydro-1H-tetrazol-1-yl)phenyl)piperidin-4-aminium chloride]
IC50 [1]: 6200 nM | IC50 (E. coli topoisomerase IV): 11500 nM | IC50 (S. aureus DNA gyrase; read-out: IC50): 216 nM | IC50 (E. coli DNA gyrase): 3.96 nM | MIC (E. coli ATCC 25922): ≥ 32 µg/mL | MIC (E. faecium ATCC 700221): ≥ 32 µg/mL | MIC (K. pneumoniae ATCC 10031): ≥ 32 µg/mL | MIC [5]: ≥ 32 µg/mL | MIC (E. faecalis ATCC 29212): ≥ 32 µg/mL | MIC [6]: ≥ 32 µg/mL | MIC (P. aeruginosa ATCC 27853): ≥ 32 µg/mL | MIC [7]: ≥ 32 µg/mL | MIC (A. baumannii ATCC 17978): ≥ 32 µg/mL | MIC (S. aureus ATCC 29213): ≥ 32 µg/mL
